Assay results as given in patent publication US20130039956A1, “USE OF NITROCARBOXYLIC ACIDS FOR THE TREATMENT, DIAGNOSIS AND PROPHYLAXIS OF AGGRESSIVE HEALING PATTERNS” (priority 2010, published 2013).

What was measured:
[1] = tested on: Murine macrophage-like cells RAW 264.7 and murine L929 fibroblasts; test: Monocyte/fibroblast co-culture on coated surgical suture material; type: cell-based; conditions: dip-coated suture material, 24 and 48 hours; compared with native FA
Description: In order to determine immunoreactions to foreign material and its consequence on fibrogenesis, co-cultures of fibroblasts and monocytes were used. Commercially available suture materials (propylene, polyamide, and silk) were dip-coated with corresponding native and nitrated fatty acids. Untreated suture material served as control. Treated and untreated suture materials were out in small pieces and placed in a 96-well plate.
Murine macrophage-like cells RAW 264.7 and murine L929 fibroblasts were cultured to a population density of 5×10(5) each. Cell suspensions were merged achieving a cellularity of approximately 2.5×10(5) cell/ml of each cell population which were added to the wells. The suture material samples were fully covered by the suspension. Wells were continuously and gently shaken throughout the incubation period.
Supernatants were collected for assays after 24 and 48 hours and analyzed for profibrotic cytokines IL-13, IL-4, and IL-6, TGF-β1, collagen I.

[2] = tested on: female Sprague-Dawley rats; test: Fibrogenesis in an in-vivo model of soft implant implantation; set-up: species or system rat; conditions: subcutaneous implants, 120 days, compared with native FA
Protocol: Silicone bag-gel miniprostheses (POLYTECH Health & Aesthetics GmbH, Dieburg, Germany) having a diameter of 2 cm and a volume of approximately 2 ml were used. […] The experimentally used implant models had two small tags which allowed the implants to be suspended during the coating procedures.
Each implant was treated in the following manner: cleaning by sonication for 2 min each in the following sequence of solvents: acetone, toluene, acetone, ethanol, and water. Implants were exposed to Piranha solution for 60 min and rinsed with deionized water. They were then immersed in a 20% aqueous solution of ammonium fluoride for 45 min to obtain a hydrogen-passivated Si surface. The ammonium fluoride solution was sparged with nitrogen for 15 min to remove dissolved oxygen. Prepared implants were transferred to a glass chamber filled with an inert atmosphere where they were suspended so that no part of their surface came in contact with the container. The container was filled with a 1-hexadecene solution and heated at 150° C. at a pressure of 2 Torr for 120 min. Prepared implants were cleaned in the following sequence of solvents: acetone, ethanol, and water. Formation of self assembled monolayer was controlled by measuring surface hydrophobicity; the contact angle was about 105°. Dry implants suspended in the container were then bathed in an ethanolic solution of oleic acid or nitro-oleic acid at a temperature of 40° C. for 120 min. Thereafter, the solution was allowed to run out slowly through an outlet at the bottom of the container. The emptying container was filled with inert gas in which the samples were maintained for 24 hours. Then samples were bathed three times in an ethanolic solution, followed by a final rinsing with sterile water. After drying, the container with the prepared implant was sterilized using ethylene oxide and stored at 20° C.
For in vivo testing, 24 uncoated and 24 coated implants were investigated in 24 female Sprague-Dawley rats (190-230 g). In the anesthetized animals, bilateral dorsal pockets in the subcutaneum were created by blunt dissection through paired paravertebral incisions. Each animal received one coated implant and one control implant on opposite sides, alternating sides on successive animals. Animals were housed and fed according to institutional standards for 120 days. Animals were sacrificed with chloroform. The implants and the adhering tissue were extracted by en bloc resection. The implants were cannulated and the liquid silicone gel was replaced by paraffin. Thereafter, the complete tissue block was prepared by standard means of histology, and stained with H&E or Masson's trichrome.

[3] = tested on: Human peripheral blood mononuclear cells (PBMCs); test: Adhesion of serum proteins and monocyte activation induced by coated silicone; type: cell-based; conditions: dip-coated silicone, PBMCs 3 days; compared with native FA
Protocol: In order to determine the effect of coating implant materials with nitro fatty acids to reduce adsorption of adhesion molecules and monocyte activation, sterile silicone sheets were out in small pieces and coated with respective nirocarboxylic acid and the corresponding native fatty acids by dip coating. Uncoated silicone pieces served as controls. For each fatty acid two sets of silicone pieces were bathed in freshly drawn human serum for 1 hour at 37° C., and another two sets were bathed in saline solutions. One set of both coated and uncoated pieces was analyzed immediately for adhesion proteins and the other set was placed in 96-well plates after rinsing the silicone pieces. Human peripheral blood mononuclear cells (PBMCs), isolated from three healthy subjects, were added to each well. Wells were incubated for 3 days under standard conditions. Culture supernatants were assayed for IL-1beta, IL-6, IL-8, and chemoattractant protein 1 (MCP-1) levels at the start and end of experiments.
Before analyzing the silicone pieces for protein adsorption, they were bathed in saline for 5 minutes. Thereafter, one side was rinsed with saline as performed for both sides in the set used for culturing. There was marked adsorption of fibrinogen and […] C5b-9 on the uncoated silicone. […] No protein was found on the surface of the nitro fatty acid-coated sample that was rinsed, thus, indicating the weak adherence of serum proteins.

Cardiomyocytes = test: TGF-β1-inducible formation of extracellular matrix in cardiomyocytes under shear stress; type: cell-based; conditions: 10-100 μmol, shear stress up to 100 dyn/cm^2; compared with native FA
Protocol: Characterizing features of the fibrous remodelling in the heart are accentuated expression and deposition of extracellular matrix proteins (ECM). This has been attributed to increased mechanical forces via autocrine release of transforming growth factor-beta (TGF-beta). […] An established cell culture model was used to investigate the effect of shear stress on cardiomyocytes. Cardiomyocytes were cultured and transferred to a matrigel substrate. Plates with confluenced cells were placed into a shear force injury device (SFID). The SFID design is based on a cone-and-plate construction which is a well-defined rheological model in which a homogenously distributed laminar flow over the surface of the cells is generated by a rotating cone. The conical surface is positioned above a stationary flat plate and the fluid medium between these two surfaces is set in motion by rotating the cone to create a uniform level of fluid shear stress throughout the entire surface of the cells cultured on the coverslips.
A peak shear stress of 100 dyn/cm^2 could be applied without significant cell detachment enabling a maximum injury severity of 46%. Cells were exposed to FCS 1% without or with nitro-fatty acid, and the corresponding native fatty acid in a dosage range between 10 μmol and 100 μmol, 10 seconds before shear force application. Shear force peaks up to 100 dyn/cm^2 with a duration of 30 msec each with a repetition frequency of 60/minute were applied for 5, 10, 30 and 60 minutes. Thereafter the cell plates were washed and placed in FCS 1% for 24 hrs. The supernatant of the shear force investigation as well as that of the following culture phase was analysed. It could be shown that TGF-beta and ECM proteins (collagen I, fibronectin, laminin, elastin) increased after treatment in the control groups.
Note: key: 0: not superior to native FA (control); +: Superior to native FA; ++: superior to both; +++: outstanding effect.

CCCCCCCCCCC/C=C(/CCCCC(=O)O)[N+](=O)[O-] [compound 21, 6-nitro-cis-6-octadecenoic acid]
Relative effect on profibrotic cytokines and collagen I on suture material [1]: + | Relative effect of surface coating on fibrogenesis around silicone implants [2]: + | Relative effect on serum protein adhesion and monocyte activation [3]: 0 | Relative efficacy to suppress TGF-beta and ECM proteins in cardiomyocytes (Cardiomyocytes): ++

CCCCCC=CCC=C(CC=CC/C=C\CCCC(=O)O)[N+](=O)[O-] [compound 22, 11-nitro-cis-5,8,11,14-eicosatetraenoic acid]
Relative effect on profibrotic cytokines and collagen I on suture material [1]: + | Relative effect of surface coating on fibrogenesis around silicone implants [2]: ++ | Relative effect on serum protein adhesion and monocyte activation [3]: + | Relative efficacy to suppress TGF-beta and ECM proteins in cardiomyocytes (Cardiomyocytes): ++
